Assay results reported in paper PMC3745399, “An NO Donor Approach to Neuroprotective and Procognitive Estrogen Therapy Overcomes Loss of NO Synthase Function and Potentially Thrombotic Risk” (PLoS ONE, 2013).

Legend:
[1] = tested on: hippocampal slices from 16-month old male 3×Tg mice; assay: LTP in CA1 of hippocampal slices after theta burst stimulation; parameters: species or system mouse; settings: hippocampal slices from C57Bl/6 mice; 100 nM; absence of DMA
Protocol: LTP in the CA1 field of the hippocampus is a well-studied cellular model for learning and memory. […] At 16 months, an advanced age at which Alzheimer's-like neuropathology is well developed in these animals, studies on LTP have not previously been reported. Nevertheless, we observed a robust, reproducible deficit in LTP in these aged transgenic mice, with field excitatory post-synaptic potentials (fEPSP) showing an end fEPSP of 97.0±6.4% of baseline at 45 min post-TBS, compared to 134.7±10.3% observed in the wild type (WT) transgenic background controls (Fig. 3A,B).
Figure 3 Reversal of LTP deficit in aged 3×Tg mice by SERMs is GPR30 dependent. LTP was measured after TBS in the CA1 region of hippocampal sections from 16 month male 3×Tg mice or WT controls. Test compounds (SERMs 100 nM; G15 100 nM) were added 30 min prior to TBS. […] (C) Secondary analysis of theta bursts indicate action both during induction and stabilization of LTP, through a GPR30 dependent mechanism.
All experiments used 16-month old male 3×Tg transgenic or age-matched WT background controls. For electrophysiology, mice were rapidly decapitated, and brains were removed into an ice-cold aCSF solution (in mM: NaCl 124, KCl 3.0, KH2PO4 1.25, NaHCO3 25.7, D-glucose 10, L-ascorbate 2.0, MgSO4 2.5, and CaCl2 3.3) and sectioned on a tissue chopper into 400 µm sections. Slices were transported to a 37°C solution of aCSF, continuously bubbled with 95% O2/5% CO2, and allowed to recover at least 60 min before experimentation. After placement of a stimulation electrode in the Schaffer commissural fibers and recording electrodes with 2 M NaCl solution into the stratum radiatum of the CA1 area, stimulus intensity was set to evoke submaximal fEPSP and continuously monitored at 20 s intervals for at least 15 min to establish a stable baseline. SERMs (100 nM) and G15 (100 nM) were prepared fresh in perfusate and started at least 30 min before LTP induction to reach a new baseline after enhancement of basal synaptic transmission was observed. […] Resulting fEPSP was monitored at 20 s intervals for ∼60 min post TBS.

[2] = tested on: isolated rings of aortae; assay: Aortic ring relaxation; parameters: species or system rat; settings: for EC50: Rattus norvegicus, intact aortic rings contracted with phenylepinephrine, mean, S.D., read-out: EC50 for relaxation
Protocol: Isolated rings of aortae from male Sprague-Dawley rats (250–300 g) were prepared for isometric tension measurements and were equilibrated for 1 h at an optimal resting tension of 10 mN. Tissues were contracted submaximally with 0.3 µM phenylepinephrine, and after 10–15 m cumulative concentration-response curves for SERMs (0.01–30 µM) were obtained. Some aortic ring preparations were denuded of the endothelium, or were treated with 100 µM L-NAME, prior to assessment of SERM-induced relaxation responses.

EC50 [2] [µM] | SMILES | effect on LTP, compound alone [1] | maximal relaxation response, comparison ([2]; intact aortic rings) | efficacy (maximal relaxation) ([2]; intact aortic rings) [% relaxation]
– | Brc1cc2c(cc1[C@@H]1Nc3ccccc3[C@@H]3C=CC[C@@H]31)OCO2 [G15] | without effect | – | –
3.3 ± 2.5 | COc1ccc(-c2sc3cc(O)ccc3c2Oc2ccc(OCCN3CCCCC3)cc2)cc1 [arzoxifene, Arzoxifene] | – | significantly less than those for DMA and raloxifene | –
4 ± 2.9 | O=C(c1ccc(OCCN2CCCCC2)cc1)c1c(-c2ccc(O)cc2)sc2cc(O)ccc12 [raloxifene, Raloxifene] | – | – | ~100
